Data as given in patent US20040242662A1 (priority 2000, published 2004).

How the values were obtained:
[1] = logP determination by HPLC (EEC Directive 79/831 Annexe V.A8); type: physicochemical; conditions: gradient method, acetonitrile/0.1% aqueous phosphoric acid
Protocol: The logP values were determined in accordance with EEC Directive 79/831 Annexe V.A8 by HPLC (gradient method, acetonitrile/0.1% aqueous phosphoric acid).

[2] = system: Phytophthora infestans; type: in vivo; conditions: tomato, protective; application rate 50 g/ha; evaluation three days after inoculation; 100% means no infection

SMILES | chromatographic logP [1] | melting point [°C] | Efficacy in % [2] [%]
Cc1c(Cl)nc(Br)n1S(=O)(=O)c1cccnc1Cl [Example 1, 3-[(2-bromo-4-chloro-5-methyl-1H-imidazol-1-yl)-sulfonyl]-2-chloropyridine] | 2.9 | 144 to 146 | 
Cc1c(Br)nc(Br)n1S(=O)(=O)c1cccnc1Cl [Example 2] | 2.97 | 154 to 158 | 
Cc1c(Cl)nc(Br)n1S(=O)(=O)c1cccnc1Cl [drawing 18] |  |  | 94
Cc1c(Br)nc(Br)n1S(=O)(=O)c1cccnc1Cl [drawing 19] |  |  | 94
